Data: PubChem BioAssay (NCI)
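Grown in 96-well plates, cells were treated for 48 hours with each compound at five concentrations. Insufficient inhibition: endpoint recorded as highest concentration tested. GI50 marks 50% less growth. Definition used: TGI = concentration required for complete inhibition of growth.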

What was measured:
Assay in all cases: NCI tumour cell line growth inhibition, 48 h
BT-549 breast = tested on: BT-549 breast
DU-145 prostate = tested on: DU-145 prostate
HOP-92 NSCLC = tested on: HOP-92 NSCLC
HS 578T breast = tested on: HS 578T breast
HT29 colon = tested on: HT29 colon
K-562 leukemia = tested on: K-562 leukemia
NCI-H23 lung = tested on: NCI-H23 lung
RXF 393 renal = tested on: RXF 393 renal
SK-MEL-5 melanoma = tested on: SK-MEL-5 melanoma
SN12C renal = tested on: SN12C renal

| Compound | GI50 (BT-549 breast) | TGI (BT-549 breast) | GI50 (DU-145 prostate) | TGI (DU-145 prostate) | GI50 (HOP-92 NSCLC) | TGI (HOP-92 NSCLC) | GI50 (HS 578T breast) | TGI (HS 578T breast) | GI50 (HT29 colon) | TGI (HT29 colon) | GI50 (K-562 leukemia) | TGI (K-562 leukemia) | GI50 (NCI-H23 lung) | TGI (NCI-H23 lung) | GI50 (RXF 393 renal) | TGI (RXF 393 renal) | GI50 (SK-MEL-5 melanoma) | TGI (SK-MEL-5 melanoma) | GI50 (SN12C renal) | TGI (SN12C renal) |
| --- | --- | --- | --- | --- | --- | --- | --- | --- | --- | --- | --- | --- | --- | --- | --- | --- | --- | --- | --- | --- |
| O=C1CC/C(=C/COc2cc(=O)oc3ccccc23)O1 | 11.5 µM | 24.7 µM | 4.32 µM | 17.6 µM | 10.5 µM | 26.9 µM | 10.5 µM | 57.4 µM | 4.38 µM | 19.6 µM | 19.3 µM | 95.2 µM | 12.8 µM | 26.8 µM | 6.9 µM | 21 µM | 16.8 µM | 33.1 µM | 14.7 µM | 36 µM |
| O=C(CC1C=Cc2ccccc2N1C(=O)c1ccccc1)c1ccccc1 (stereo unspecified) |  | 69.7 µM |  | > 100 µM |  | 86 µM |  | 67.4 µM |  | 40.2 µM |  | > 100 µM |  | > 100 µM |  | > 100 µM |  | 30.2 µM |  | 45.9 µM |
| Cc1cccc2c3c(sc12)C(c1ccc(F)cc1)C(C#N)=C(N)O3 (stereo unspecified) | 0.297 µM | 3.18 µM | 0.151 µM | 13 µM | 1.07 µM | 8.26 µM | 0.0482 µM | 1.95 µM | 0.313 µM | 8.4 µM | 0.0357 µM | > 100 µM | 0.127 µM | 12 µM | 0.0271 µM | 0.0825 µM | 0.111 µM | 1.38 µM | 0.159 µM | 11.7 µM |
| CN(C)c1ccc(/C=N/S(=O)(=O)c2ccc(-n3c(-c4ccccc4)nc4c(Br)cc(Br)cc4c3=O)cc2)cc1 | 30.6 µM | > 68.8 µM | 32.6 µM | > 90.2 µM | 22.7 µM | 71.6 µM | 32.6 µM | > 92.1 µM | 42.5 µM | > 100 µM | 31.3 µM | > 86.5 µM | 37.7 µM | 92.6 µM | 50.2 µM | > 100 µM | 15.3 µM | 38.3 µM | 43.4 µM | > 100 µM |
| CCOc1ccc2c(c1)c(CC(=O)O)cn2C |  | > 100 µM |  | > 100 µM |  | > 100 µM |  | > 100 µM |  | > 100 µM |  | > 100 µM |  | > 100 µM |  | > 100 µM |  |  |  | > 100 µM |
| Cn1cc(C2=C(Nc3ccccc3)C(=O)NC2=O)c2ccccc21 | > 25 µM | > 25 µM | > 25 µM | > 25 µM | > 25 µM | > 25 µM | > 25 µM | > 25 µM | 14.7 µM | > 25 µM | > 25 µM | > 25 µM | > 25 µM | > 25 µM | > 25 µM | > 25 µM | > 25 µM | > 25 µM | > 25 µM | > 25 µM |
| C[C@@H](CO)NC(=O)c1cc(-c2ccc(Cl)cc2)nn(-c2cnn(C)c2)c1=O | 23.7 µM | 86.9 µM | 29.6 µM | > 100 µM | 16.6 µM | > 100 µM | 24.8 µM | > 100 µM | 19.4 µM | 76.7 µM | 26.3 µM | 95 µM | 27.9 µM | > 100 µM | 7.79 µM | 45.8 µM | 12.7 µM | 26 µM | 19.3 µM | > 100 µM |
| CC(=O)Nc1n[n+]([O-])c2cc(C)ccc2[n+]1[O-] |  | 14.2 µM |  | 18.4 µM |  | 7.29 µM |  | 40.7 µM |  | 13.4 µM |  | > 49.3 µM |  | 9.32 µM |  | 22.6 µM |  | 3.87 µM |  | 18.8 µM |
| COc1cnc2c(c1)C(=O)c1c-2n(CCCN2CCC(O)CC2)c(=O)c2cc(Cl)ccc12 | 9.9 µM | 25.9 µM | 0.279 µM | 1.71 µM | 15.5 µM | 34.8 µM | 14.1 µM | 37.5 µM | 0.59 µM | 2.43 µM | 1.43 µM | 6.34 µM | 0.248 µM | 1.74 µM | 0.347 µM | 1.72 µM | 1.92 µM | 20.4 µM |  |  |
| CCSC[C@@H]1C[C@](O)(c2ccc(F)cc2)[C@@H](c2ccc(F)cc2)O1 | 16.8 µM | 30.9 µM | 15.1 µM | 28.4 µM | 15.2 µM | 28.6 µM | 18 µM | 37 µM | 14.1 µM | 27.7 µM | 16 µM | 31.5 µM | 19.1 µM | 46.6 µM | 20.2 µM | 45.7 µM | 14.8 µM | 28 µM | 17.9 µM | 33.3 µM |
| CCN1C(=NCCO)NS(=O)(=O)c2ccccc21 |  | > 100 µM |  | > 100 µM |  | > 100 µM |  | > 100 µM |  | > 100 µM |  | > 100 µM |  | > 100 µM |  | > 100 µM |  | > 100 µM |  | > 100 µM |
| CC1(C)O[C@@H]2C[C@H]3[C@@H]4C[C@H](F)C5=CC(=O)C=C[C@]5(C)[C@@]4(F)[C@@H](O)C[C@]3(C)[C@]2(C(=O)CO)O1 |  | > 100 µM |  | > 100 µM |  | > 100 µM |  | > 100 µM |  | > 100 µM |  | > 100 µM |  | > 100 µM |  | > 100 µM |  | > 100 µM |  | > 100 µM |
| O=C1c2cccnc2C(=O)c2c1c(C(=O)OCCCN1CCCCC1)c1ccccn21 | 0.108 µM | 2.78 µM | < 0.01 µM | 1.29 µM | 0.0512 µM | 0.913 µM | < 0.0178 µM | 0.132 µM | 0.0295 µM | 0.665 µM | < 0.0144 µM |  | < 0.01 µM | 0.026 µM | < 0.0108 µM | < 0.019 µM | < 0.0143 µM | 0.0466 µM |  |  |
| O=C(O)c1c(Br)c(Br)c(Br)c(Br)c1C1c2ccc(O)cc2Oc2cc(O)ccc21 |  | > 100 µM |  | > 100 µM |  | > 100 µM |  | > 100 µM |  | > 100 µM |  | > 100 µM |  |  |  | > 100 µM |  | > 100 µM |  | > 100 µM |
| CC(=O)/C=C/c1ccc(OCc2ccc(Cl)cc2)cc1 | 136 µM | > 1000 µM | 636 µM | > 1000 µM | 372 µM | > 1000 µM | > 1000 µM | > 1000 µM | > 1000 µM | > 1000 µM |  |  | 720 µM | > 1000 µM | 568 µM | > 1000 µM | 140 µM | 395 µM | 893 µM | > 1000 µM |
